Publication PMC11761369 (bioRxiv, 2025)
Blank lines part the entries; values can stand above or below the molecule they belong to.

Columns and labels:
[1] = system: clathrin-mediated endocytosis; assay: Microscopy of AA3H entry with inhibition of clathrin-mediated endocytosis; assay type: cell-based; conditions: Pitstop2 40 μM
BBB cells = assay: UPLC-MS of PepTGN and analogs after incubation with BBB cells; assay type: cell-based; conditions: UPLC-MS (Figure 6C)
bEND.3 cell line = assay: μMap profiling of PepTGN intracellular interactors; assay type: cell-based, mouse; conditions: 37 °C, 1 h incubation
[2] = assay type: cell-based; conditions: after 30 minutes incubation; overlaying with ER-marker (ERp57/ERp60 antibody)
CALCRL = CALCRL (Homo sapiens, UniProt O60894+Q16602); assay: Flow cytometry of FITC-labeled PepTGN internalization with blocking agents; assay type: cell-based; conditions: compared to non-binding isotype control
Chain of CALCRL (Q16602 23-461): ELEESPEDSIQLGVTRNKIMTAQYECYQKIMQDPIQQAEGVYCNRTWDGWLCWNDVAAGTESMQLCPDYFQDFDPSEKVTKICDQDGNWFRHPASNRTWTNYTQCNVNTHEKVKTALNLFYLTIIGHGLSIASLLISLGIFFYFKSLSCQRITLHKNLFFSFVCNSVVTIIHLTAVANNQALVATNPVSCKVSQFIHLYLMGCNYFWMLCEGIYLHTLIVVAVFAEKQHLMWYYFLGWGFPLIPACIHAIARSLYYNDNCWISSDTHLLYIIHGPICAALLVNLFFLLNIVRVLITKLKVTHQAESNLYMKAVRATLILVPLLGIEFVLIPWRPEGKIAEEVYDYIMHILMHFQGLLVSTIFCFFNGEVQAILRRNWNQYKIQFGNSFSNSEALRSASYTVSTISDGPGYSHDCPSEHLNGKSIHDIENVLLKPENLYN
Chain of CALCRL (O60894 27-148): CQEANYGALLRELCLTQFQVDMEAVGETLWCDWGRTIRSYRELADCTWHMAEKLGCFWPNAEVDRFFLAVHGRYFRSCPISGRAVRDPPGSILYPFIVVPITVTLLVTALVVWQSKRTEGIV

Molecule: O=C1NC(=NS(=O)(=O)c2cccc3ccccc23)S/C1=C\c1ccc(Br)cc1 [Pitstop2]
- effect on AA3H internalization [1]: disrupted

- +322 mass shift after incubation with BBB cells (BBB cells): did not display
Molecule: AGNYKALHPHNG [T12A analog]

- interactor genes associated to ER and Golgi trafficking and secretory pathways (bEND.3 cell line): about 30%
- cellular localization [2]: distinct puncta
Molecule: TGNYKALHPHNG [PepTGN]

- effect of pre-incubation on PepTGN internalization (CALCRL): significantly decreased
B1: Erenumab: monoclonal antibody used in migraine therapy that targets CALCRL and inhibits CGRP binding (antibody, chains of the INN, looked up, V domains shown)
VH: QVQLVESGGGVVQPGRSLRLSCAASGFTFSSFGMHWVRQAPGKGLEWVAVISFDGSIKYSVDSVKGRFTISRDNSKNTLFLQMNSLRAEDTAVYYCARDRLNYYDSSGYYHYKYYGMAVWGQGTTVTVSS
VL: QSVLTQPPSVSAAPGQKVTISCSGSSSNIGNNYVSWYQQLPGTAPKLLIYDNNKRPSGIPDRFSGSKSGTSTTLGITGLQTGDEADYYCGTWDSRLSAVVFGGGTKLTVL
